Results on three molecules are retold here after paper PMC9485985 (Journal of Innate Immunity, 2021).

Peptide text beside a SMILES is read from it.

One data set has as its system RAW264.7 cells. The data set can be described thus: Uptake of TAMRA-labeled TCPs, flow cytometry. Type of data set: cell-based, murine. The following applies: Fig. 1d, inhibitor 30 min then 2 µM T-GKY25 1 h, n = 3-4. For orientation: A flow cytometer gives signals particle by particle.
Another data set relates to 0.5% whole blood. The following applies: ref [5], [7], [11], [12], [38]; cited from earlier work.
For data set [1] the following is noted: ref [11]; cited from earlier work.

On to `CN(C)c1cccc2c(S(=O)(=O)NCCCCCN)cccc12` [dansylcadaverine, Dansylcadaverine], for which, in the data set on RAW264.7 cells, the “effect of inhibitor on uptake of T-GKY25” value is given as “did not show any effect”. Regarding `CC[C@H](C)[C@H](NC(=O)[C@H](Cc1c[nH]c2ccccc12)NC(=O)[C@H](CCCCN)NC(=O)[C@H](CCCCN)NC(=O)[C@H](CC(C)C)NC(=O)[C@H](CCCNC(=N)N)NC(=O)[C@H](Cc1ccccc1)NC(=O)[C@@H](NC(=O)[C@@H](N)Cc1cnc[nH]1)C(C)C)C(=O)N[C@@H](CCC(N)=O)C(=O)N[C@@H](CCCCN)C(=O)N[C@H](C(=O)N[C@H](C(=O)N[C@@H](CC(=O)O)C(=O)N[C@@H](CCC(N)=O)C(=O)N[C@@H](Cc1ccccc1)C(=O)NCC(=O)N[C@@H](CCC(=O)O)C(=O)O)[C@@H](C)CC)C(C)C` [HVF18] (H-HVFRLKKWIQKVIDQFGE-OH), in the data set on 0.5% whole blood, the “concentration from which hemolysis is induced” value was over 80 µM. For WFFFYYLIIGGGVVTHQQRKKKKDE [WFF25], the immunomodulatory effects entry in data set [1] was “did not show any immunomodulatory effects”.
